US20260041620A1, “NOVEL AMINO ACID BASED SALTS, COMPOSITIONS AND METHODS FOR TREATING SKIN AND IMPROVING SKIN REJUVENATION AND LONGEVITY” (Sytheon Ltd, priority 2023, published 2026)
Like-named read-outs stand apart in the source and are kept apart here.

Experiments:
[1] = tested on: Type I Collagen; experiment: Type I Collagen Assay (ELISA, fibroblast culture medium); type: cell-based, human; conditions: 10 μg/ml, 48 hours; untreated 1255 ± 83
Procedure: (§1) In the study, human neonatal fibroblasts were seeded into the individual wells of a 48-well plate in 0.25 ml of Fibroblasts Growth Media (FGM) and incubated overnight at 37±2° C. and a 5±1% CO2 atmosphere. On the following day the media was removed via aspiration to eliminate non-adherent cells and replaced with 0.5 ml of fresh FGM. The cells were grown until confluent, with a media change every 48 to 72 hours. Upon reaching confluency the cells were treated for 24 hours with Dulbecco's Modified Eagle's medium (DMED) supplemented with 1.5% Fetal Bovine Serum (FBS) to wash out any effects from the growth factors included in the normal culture media. After this 24-hour wash out period the cells were treated with the test materials at the specified concentrations dissolved in FGM with 1.5% FBS. Sodium ascorbate (10 ug/ml) was used as a positive control. Untreated cells (negative controls) only received DMEM with […], The cells were incubated for 48 hours and at the end of the incubation period, cell culture medium was collected and either stored frozen (−75 C) or assayed immediately. Materials were tested in triplicate.
A series of type I collagen peptide standards was prepared ranging from 0 ng/ml to 640 ng/ml. An ELISA microplate was prepared by removing any unneeded strips from the plate frame followed by the addition of 100 μl of peroxidase labelled anti-procollagen type I-C peptide antibody to each well used in the assay. A 20 μl sample of each of the collected tissue culture media or a standard was then added to appropriate wells and the microplate covered and allowed to incubate for 3±0.25 hours at 37 C. Following incubation, the wells were aspirated and washed three times with 400 μl of wash buffer. After the last wash was remove 100 μl of peroxidase substrate solution (hydrogen peroxide+tetramethylbenzidine as a chromogen) was added to each well and the plate incubated for 15±4 minutes at room temperature. Following this incubation, 100 μl of stop solution (1 N sulfuric acid) was added to each well and the plate read using a microplate reader at 450 nm.
(§2) To quantify the amount of each substance present, a standard curve was generated using known concentrations of each substance. A regression analysis was performed to establish the line that best fit those data points. Absorbance values for the test materials and untreated samples were used to estimate the amount of each substance present in each sample. Treatment means were compared using ANOVA, with an […] per treatment. Statistical significance was set at p≤0.05.

[2] = tested on: Type IV Collagen; experiment: Type IV Collagen Assay (ELISA, fibroblast culture medium); type: cell-based, human; conditions: 10 μg/ml, 48 hours; untreated 7.76 ± 0.92
Procedure: as §1
A series of type IV collagen peptide standards was prepared ranging from 0 ng/ml to 640 ng/ml. 100 μl of each standard or of each of the collected tissue culture media were added to the wells of type IV collagen ELISA plates. The plates were then incubated at 37° C. for 1 hour. After incubation, the ELISA plates were then washed twice with wash buffer, followed by the addition of 100 μl of detection antibody solution. The ELISA plates were then incubated for 1 hour at 37° C. Following incubation, the ELISA plates were washed with wash solution followed by the addition of 100 μl HEP conjugate solution and incubated at 37° C. for 30 minutes. Following the latter incubation, the ELISA plates were again washed and 100 μl of the substrate solution was added to each well and the well plates incubated for 10-30 minutes at room temperature to allow the color generation reaction to occur. At the end of the color generation reaction 100 μl of stop solution (1 N sulfuric acid) was added to each well and the plates read at 460 nm using a plate reader.
as §2

[3] = target: T1, MAGL (Homo sapiens, UniProt Q99685); experiment: MAGL inhibitory assay; type: biochemical
T1 construct: purchased Cayman 10007812
T1 sequence (Q99685 1-303): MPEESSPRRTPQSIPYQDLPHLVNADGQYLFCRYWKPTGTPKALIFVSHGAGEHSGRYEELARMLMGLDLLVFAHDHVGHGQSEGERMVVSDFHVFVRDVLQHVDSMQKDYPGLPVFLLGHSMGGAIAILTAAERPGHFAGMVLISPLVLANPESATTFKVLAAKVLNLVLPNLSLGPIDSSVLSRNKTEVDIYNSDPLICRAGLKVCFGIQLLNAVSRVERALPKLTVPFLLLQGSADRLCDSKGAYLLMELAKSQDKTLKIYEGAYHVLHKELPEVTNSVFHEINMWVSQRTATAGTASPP
Procedure: Each study was performed in duplicate and the results averaged.
The final concentration in each well was 10 μl of sample, 5.6 μM MAGL (Cayman Catalog #10007812) and 23.6 μM 2-Arachidonoyl Glycerol (Cayman catalog #62160).

[4] = tested on: Telomerase; experiment: Telomerase Activity Quantification qPCR Assay in human dermal fibroblasts; type: cell-based; conditions: 300 nM, three days
Procedure: Normal neonatal human dermal fibroblasts (HDF cat, #2310; ScienCell, Oceanside, CA) were grown to confluence in the 6 well plate format and incubated with the test substances identified in Table 3 for three days. Following incubation, the cells were lysed and telomerase activity was determined with Telomerase Activity Quantification qPCR Assay Kit from ScienCell (cat. #8928). Forget-Me-Not™ EvaGreen® qPCR Master Mix (Low ROX) (Biotium, Fremont, CA) was used for real-time quantitative PCR on C1000 Touch System with CFX384™ optical module Detection. For quantifying the level of activity, the Comparative Cq method was used, following the equation: […]
where TPS is telomere primer set, which recognizes and amplifies newly synthesized telomere sequences and Cq(TPS) is the Quantification Cycle Value obtained from the qPCR software. The relative telomerase activity difference between the experimental condition and control is expressed as 2^−ΔCq Telomerase activity was considered different if the level of expression was reasonably high (Cq≤33 cycles to detect), the difference vs. control was >2 fold and the p value, assessed with two-tailed Student test, was <0.05.

[5] = target: HDAC 4 (Homo sapiens, UniProt P56524); experiment: HDAC 4 fluorogenic assay kit
Sequence of HDAC 4 (P56524 whole entry): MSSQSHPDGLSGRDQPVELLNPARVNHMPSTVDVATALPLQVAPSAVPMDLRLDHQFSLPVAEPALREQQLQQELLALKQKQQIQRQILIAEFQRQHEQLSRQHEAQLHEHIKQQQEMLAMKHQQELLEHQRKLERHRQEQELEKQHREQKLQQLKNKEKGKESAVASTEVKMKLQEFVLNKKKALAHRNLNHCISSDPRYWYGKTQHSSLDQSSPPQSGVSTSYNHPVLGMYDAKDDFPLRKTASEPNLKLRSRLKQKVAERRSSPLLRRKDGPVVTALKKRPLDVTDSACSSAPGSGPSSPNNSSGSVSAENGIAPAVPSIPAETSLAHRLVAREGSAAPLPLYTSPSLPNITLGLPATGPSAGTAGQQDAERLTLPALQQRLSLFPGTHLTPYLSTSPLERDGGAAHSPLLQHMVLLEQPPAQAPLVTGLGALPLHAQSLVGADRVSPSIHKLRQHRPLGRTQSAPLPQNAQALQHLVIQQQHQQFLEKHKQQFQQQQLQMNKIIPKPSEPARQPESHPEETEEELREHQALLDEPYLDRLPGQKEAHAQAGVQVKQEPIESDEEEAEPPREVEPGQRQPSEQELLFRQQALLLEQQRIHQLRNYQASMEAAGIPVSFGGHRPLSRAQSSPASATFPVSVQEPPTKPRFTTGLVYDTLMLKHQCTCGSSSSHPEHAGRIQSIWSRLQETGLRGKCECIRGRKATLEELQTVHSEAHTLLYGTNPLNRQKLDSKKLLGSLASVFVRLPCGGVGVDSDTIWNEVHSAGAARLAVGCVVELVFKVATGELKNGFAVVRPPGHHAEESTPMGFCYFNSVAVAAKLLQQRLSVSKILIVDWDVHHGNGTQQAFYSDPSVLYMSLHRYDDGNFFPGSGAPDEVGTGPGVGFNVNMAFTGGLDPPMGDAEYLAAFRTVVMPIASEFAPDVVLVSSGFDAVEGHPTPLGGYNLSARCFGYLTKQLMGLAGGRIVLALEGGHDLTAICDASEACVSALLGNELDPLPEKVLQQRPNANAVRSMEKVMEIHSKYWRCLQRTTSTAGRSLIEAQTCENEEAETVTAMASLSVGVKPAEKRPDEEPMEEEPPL
Procedure: (§3) Test materials were stored at room temperature and stock solutions were prepared at 20 mg/ml in DMSO. Further dilutions were made in sterile distilled water immediately before being added to the reaction mixture containing a substrate, and the reaction was triggered by the addition of purified HDAC enzymes, Double distilled water was the negative control and trichostatin (1.5 ug/ml) was used as a positive control for validation of each study. The test procedure was as directed in the assay kits. The products of the reactions were measured by fluorometry at ex/em 350/450 nm using multi-well plate fluorometer Cytofluor 4000 (Applied Biosystem, Foster City, CA) or using SpectraMax i3× Multi-Mode Detection Platform from Molecular Devices (Sunnyvale, CA).
(§4) Statistical significance was assessed with a two-tail Student test. Deviations of ≤20% as compared to water control with p values below 0.05 were considered statistically significant.

[6] = target: T2, HDAC 11 (Homo sapiens, UniProt Q96DB2); experiment: HDAC 11 fluorogenic assay kit; type: biochemical
T2 construct: purchased BPS Biosciences 50687
T2 sequence (Q96DB2 1-347): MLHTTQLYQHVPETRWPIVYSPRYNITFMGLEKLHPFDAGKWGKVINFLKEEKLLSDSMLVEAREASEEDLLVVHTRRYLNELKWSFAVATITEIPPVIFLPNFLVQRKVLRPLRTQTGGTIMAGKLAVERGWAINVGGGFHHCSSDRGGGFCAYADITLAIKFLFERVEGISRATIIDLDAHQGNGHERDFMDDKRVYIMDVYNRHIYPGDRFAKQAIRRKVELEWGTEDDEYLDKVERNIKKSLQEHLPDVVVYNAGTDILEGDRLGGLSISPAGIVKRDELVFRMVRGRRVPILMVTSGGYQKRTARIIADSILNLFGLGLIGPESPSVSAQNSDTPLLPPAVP
Procedure: as §3, §4

[7] = target: T3, FAAH (Homo sapiens, UniProt O00519); experiment: FAAH fluorescence-based inhibitory assay; type: biochemical
T3 sequence (O00519 1-579): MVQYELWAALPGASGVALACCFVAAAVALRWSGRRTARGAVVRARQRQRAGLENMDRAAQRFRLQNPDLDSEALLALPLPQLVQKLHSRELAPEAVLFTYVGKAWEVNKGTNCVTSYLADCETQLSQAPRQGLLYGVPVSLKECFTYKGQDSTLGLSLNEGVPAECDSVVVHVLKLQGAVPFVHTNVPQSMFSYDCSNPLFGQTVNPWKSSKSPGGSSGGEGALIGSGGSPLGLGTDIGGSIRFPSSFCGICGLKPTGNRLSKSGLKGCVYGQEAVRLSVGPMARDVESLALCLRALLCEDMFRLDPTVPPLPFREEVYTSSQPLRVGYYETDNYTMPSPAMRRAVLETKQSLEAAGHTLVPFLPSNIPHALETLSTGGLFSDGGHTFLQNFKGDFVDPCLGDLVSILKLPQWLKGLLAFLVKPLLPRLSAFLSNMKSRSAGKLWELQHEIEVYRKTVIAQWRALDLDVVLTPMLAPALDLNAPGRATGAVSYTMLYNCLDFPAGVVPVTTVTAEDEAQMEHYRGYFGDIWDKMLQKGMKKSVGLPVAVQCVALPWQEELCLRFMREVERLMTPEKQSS

[8] = target: T4, FABP-3 (Homo sapiens, UniProt P05413); experiment: FABP-3 ELISA inhibitory assay; type: biochemical
T4 construct: purchased Neovateinbio PT-452
T4 sequence (P05413 whole entry): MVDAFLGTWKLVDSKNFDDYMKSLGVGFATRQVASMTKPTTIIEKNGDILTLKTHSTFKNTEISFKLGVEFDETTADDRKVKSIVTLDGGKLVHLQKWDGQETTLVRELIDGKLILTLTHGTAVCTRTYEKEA

[9] = target: T5, FABP-5 (Homo sapiens, UniProt Q01469); experiment: FABP-5 ELISA inhibitory assay; type: biochemical
T5 construct: purchased Raybiotech 268-10276-1
T5 sequence (Q01469 whole entry): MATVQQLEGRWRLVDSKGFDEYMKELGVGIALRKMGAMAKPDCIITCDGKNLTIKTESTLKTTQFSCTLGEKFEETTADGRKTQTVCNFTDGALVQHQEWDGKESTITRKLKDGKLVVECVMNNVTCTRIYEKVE

[10] = target: HDAC 3 (Homo sapiens, UniProt O15379)
Sequence of HDAC 3 (O15379 whole entry): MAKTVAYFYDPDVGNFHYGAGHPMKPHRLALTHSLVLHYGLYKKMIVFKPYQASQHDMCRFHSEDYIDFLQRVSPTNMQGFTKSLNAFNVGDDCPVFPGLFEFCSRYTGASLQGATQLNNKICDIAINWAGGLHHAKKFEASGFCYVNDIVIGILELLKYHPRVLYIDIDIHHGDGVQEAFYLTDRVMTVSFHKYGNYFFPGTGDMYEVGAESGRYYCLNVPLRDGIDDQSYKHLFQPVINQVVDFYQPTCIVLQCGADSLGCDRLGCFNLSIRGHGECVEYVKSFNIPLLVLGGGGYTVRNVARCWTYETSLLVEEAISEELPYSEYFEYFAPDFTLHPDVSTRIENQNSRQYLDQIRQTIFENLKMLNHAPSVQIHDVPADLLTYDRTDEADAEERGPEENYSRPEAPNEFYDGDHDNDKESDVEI
Sequence of HDAC 3 (Q9Y618 395-489 partner limits assumed): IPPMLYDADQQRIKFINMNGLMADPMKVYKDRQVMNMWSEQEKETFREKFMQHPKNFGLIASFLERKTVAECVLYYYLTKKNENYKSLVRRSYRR
Procedure: as §3, §4

[11] = target: T6, HDAC7 (Homo sapiens, UniProt Q8WUI4)
T6 sequence (Q8WUI4 1-952): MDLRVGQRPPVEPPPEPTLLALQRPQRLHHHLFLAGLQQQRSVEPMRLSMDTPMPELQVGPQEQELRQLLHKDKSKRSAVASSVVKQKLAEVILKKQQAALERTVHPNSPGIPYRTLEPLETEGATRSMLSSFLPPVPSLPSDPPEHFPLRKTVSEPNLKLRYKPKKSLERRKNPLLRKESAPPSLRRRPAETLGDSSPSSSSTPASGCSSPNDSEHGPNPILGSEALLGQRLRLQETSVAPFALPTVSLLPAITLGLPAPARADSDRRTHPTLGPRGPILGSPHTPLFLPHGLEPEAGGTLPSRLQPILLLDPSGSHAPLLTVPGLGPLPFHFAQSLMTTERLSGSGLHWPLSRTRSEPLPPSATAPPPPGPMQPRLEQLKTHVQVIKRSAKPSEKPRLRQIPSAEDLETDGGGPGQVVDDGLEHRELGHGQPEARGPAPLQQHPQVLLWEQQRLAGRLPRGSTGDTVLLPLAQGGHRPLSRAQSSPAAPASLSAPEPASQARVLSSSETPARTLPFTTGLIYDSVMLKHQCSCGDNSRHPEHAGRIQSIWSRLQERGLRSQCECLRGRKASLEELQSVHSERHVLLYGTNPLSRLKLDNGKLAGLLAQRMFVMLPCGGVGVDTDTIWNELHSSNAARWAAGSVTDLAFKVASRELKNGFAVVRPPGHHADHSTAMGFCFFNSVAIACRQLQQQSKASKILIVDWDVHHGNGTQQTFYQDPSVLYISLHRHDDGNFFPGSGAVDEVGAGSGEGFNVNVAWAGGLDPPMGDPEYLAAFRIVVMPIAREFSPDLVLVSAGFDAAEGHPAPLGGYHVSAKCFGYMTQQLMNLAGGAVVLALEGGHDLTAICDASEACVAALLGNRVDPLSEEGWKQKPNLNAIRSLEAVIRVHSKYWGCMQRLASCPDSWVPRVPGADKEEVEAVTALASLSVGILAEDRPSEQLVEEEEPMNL
Procedure: as §3, §4

[12] = target: T7, HDAC10 (Homo sapiens, UniProt Q969S8)
T7 sequence (Q969S8 1-669): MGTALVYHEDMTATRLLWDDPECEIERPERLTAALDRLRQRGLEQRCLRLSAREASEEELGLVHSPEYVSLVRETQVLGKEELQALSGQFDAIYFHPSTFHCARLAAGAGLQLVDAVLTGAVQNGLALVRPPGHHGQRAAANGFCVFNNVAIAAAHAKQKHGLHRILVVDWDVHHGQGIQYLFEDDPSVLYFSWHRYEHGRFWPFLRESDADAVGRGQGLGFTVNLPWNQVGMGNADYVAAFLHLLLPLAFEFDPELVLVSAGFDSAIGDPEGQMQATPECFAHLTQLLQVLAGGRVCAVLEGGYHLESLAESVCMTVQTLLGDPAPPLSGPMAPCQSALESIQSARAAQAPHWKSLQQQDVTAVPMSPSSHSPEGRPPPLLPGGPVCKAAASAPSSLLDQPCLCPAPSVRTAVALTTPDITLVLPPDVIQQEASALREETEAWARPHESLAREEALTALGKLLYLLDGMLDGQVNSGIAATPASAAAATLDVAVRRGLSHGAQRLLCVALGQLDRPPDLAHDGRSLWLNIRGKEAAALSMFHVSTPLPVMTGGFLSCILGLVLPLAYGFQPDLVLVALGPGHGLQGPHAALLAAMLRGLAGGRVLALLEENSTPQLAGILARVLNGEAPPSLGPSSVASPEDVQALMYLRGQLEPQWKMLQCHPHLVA
Procedure: as §3, §4

[13] = target: HDAC1 (Homo sapiens, UniProt Q13547); experiment: HDAC 1 fluorogenic assay kit; conditions: 200 ug/ml
Sequence of HDAC1 (Q13547 whole entry): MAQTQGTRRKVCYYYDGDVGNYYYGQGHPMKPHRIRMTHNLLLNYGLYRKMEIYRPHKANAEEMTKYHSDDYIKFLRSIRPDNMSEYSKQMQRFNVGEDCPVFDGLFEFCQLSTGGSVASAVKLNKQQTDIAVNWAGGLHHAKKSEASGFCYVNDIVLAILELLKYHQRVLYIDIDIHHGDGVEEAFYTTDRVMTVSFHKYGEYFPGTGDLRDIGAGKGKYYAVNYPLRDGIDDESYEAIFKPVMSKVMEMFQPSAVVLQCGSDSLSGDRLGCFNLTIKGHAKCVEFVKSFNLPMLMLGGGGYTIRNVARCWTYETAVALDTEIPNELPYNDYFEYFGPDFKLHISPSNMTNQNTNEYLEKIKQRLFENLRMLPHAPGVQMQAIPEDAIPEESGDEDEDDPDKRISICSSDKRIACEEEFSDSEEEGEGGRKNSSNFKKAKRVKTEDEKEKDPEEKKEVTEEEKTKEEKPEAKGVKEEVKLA
Procedure: as §3, §4

O=C1O[C@H]([C@@H](O)CO)C([O-])=C1O.[Na+] [Na ascorbate, Sodium ascorbate]
Type I Collagen C-Peptide [1]: 4018 ± 196 ng/mL
Type IV Collagen C-Peptide [2]: 67.70 ± 5.03 ng/mL

C=C(C)[C@@H]1CCC(C)=C[C@H]1c1c(O)cc(CCCCC)cc1O [CBD, Cannabidiol, reference compound]
MAGL IC50 [3]: 4,130^2 ^ μg/ml

CC(/C=C/C(=O)NO)=C\[C@@H](C)C(=O)c1ccc(N(C)C)cc1 [Trichostatin-A]
Average Cq(TPS) [4]: 32.3
Telomerase Activity (FC vs. water) [4]: 2.8 FC
ΔCq sample-water [4]: 1.5

CCCC(=O)[O-].CCCC(=O)[O-].[Ca+2] [Ca n-butyrate, reference compound]
HDAC 4 activity, % of water-treated controls ([5]; 25 ug/ml): 104%
HDAC 4 activity, % of water-treated controls ([5]; 50 ug/ml): 102%
HDAC 4 activity, % of water-treated controls ([5]; 100 ug/ml): 109%

CCCC(=O)NCCCC[C@H](NC(=O)CCC)C(=O)[O-].CCCC(=O)NCCCC[C@H](NC(=O)CCC)C(=O)[O-].[Mg+2] [Mg di-(di-n-butyryl lysinate), magnesium di-(di-n-butyryl lysinate)]
HDAC 11 activity, % of water-treated controls ([6]; 100 ug/ml): 91%
HDAC 11 activity, % of water-treated controls ([6]; 200 ug/ml): 91%
FAAH IC50 [7]: 368.5 µg/mL
FABP-3 IC50 [8]: 282.5 µg/mL
FABP-5 IC50 [9]: 349.1 µg/mL
MAGL IC50 [3]: 101 µg/mL
HDAC 3 activity, % of water-treated controls ([10]; 100 ug/ml): 114%
HDAC 3 activity, % of water-treated controls ([10]; 200 ug/ml): 117%
HDAC 7 activity, % of water-treated controls ([11]; 100 ug/ml): 100%
HDAC 7 activity, % of water-treated controls ([11]; 200 ug/ml): 100%
HDAC 10 activity, % of water-treated controls ([12]; 100 ug/ml): 98%
HDAC 10 activity, % of water-treated controls ([12]; 200 ug/ml): 102%
HDAC 1 activity, % of water-treated controls [13]: 74%
